In publication PMC9503212, “A High-Affinity ^64Cu-Labeled Ligand for PET Imaging of Hepsin: Design, Synthesis, and Characterization” (Pharmaceuticals, 2022):

Legend:
Recombinant hepsin = target: T1, Recombinant hepsin (Homo sapiens, UniProt P05981); assay: In vitro binding assay (fluorogenic BOC–QAR–AMC substrate), hepsin; type: biochemical; conditions: for Ki: 0.3 nM enzyme, 150 μM substrate, Ki by Cheng and Prusoff from IC50, three determinations; for Matriptase/ Hepsin (hepsin selectivity, ratio of Ki values): ratio of Ki values for matriptase and hepsin
T1 construct: purchased R&D Systems
Protocol: Recombinant hepsin (R&D Systems, Minneapolis, MN, USA) was diluted 5.5-fold in TNC buffer (25 mM Tris-HCl, 150 mM NaCl, 5 mM CaCl2, 0.01% Triton X-100, pH 8) and incubated at 37 °C. After 24 h, hepsin was diluted in glycerol to 50%. The stock solution (1.2 μM) was stored at −81 °C and diluted in TNC buffer before use.
(§1) Ligands (0.03 nM–30 µM) were diluted in DMSO (2% final concentration) and mixed with either activated hepsin or matriptase in 96-well plates. The final assay concentration for both hepsin and matriptase in TNC buffer was 0.3 nM. After an incubation period of 30 min at 37 °C, BOC–QAR–AMC substrate (R&D Systems) was added to hepsin and matriptase assay mixtures. The final substrate concentration was 150 μM in a final reaction volume of 100 μL.
(§2) Changes in fluorescence (excitation at 380 nm and emission at 460 nm) were measured at room temperature over 2 h in a BioTek Synergy two-plate reader (Agilent Technologies). Using the GraphPad Prism version 6.02 software (San Diego, CA, USA), a non-linear curve fit was performed to determine the inhibitor IC50s from a plot of the mean reaction velocity versus the inhibitor concentration. The IC50 values represent the average of three experimental determinations (Figure S1). Ki values were calculated using the Cheng and Prusoff equation (Ki = IC50/(1 + [S]/Km)).

matriptase = target: T2, matriptase (Homo sapiens, UniProt Q9Y5Y6); assay: In vitro binding assay (fluorogenic BOC–QAR–AMC substrate), matriptase; type: biochemical; conditions: 0.3 nM enzyme, 150 μM substrate, Ki by Cheng and Prusoff from IC50, three determinations
T2 sequence (Q9Y5Y6 1-855): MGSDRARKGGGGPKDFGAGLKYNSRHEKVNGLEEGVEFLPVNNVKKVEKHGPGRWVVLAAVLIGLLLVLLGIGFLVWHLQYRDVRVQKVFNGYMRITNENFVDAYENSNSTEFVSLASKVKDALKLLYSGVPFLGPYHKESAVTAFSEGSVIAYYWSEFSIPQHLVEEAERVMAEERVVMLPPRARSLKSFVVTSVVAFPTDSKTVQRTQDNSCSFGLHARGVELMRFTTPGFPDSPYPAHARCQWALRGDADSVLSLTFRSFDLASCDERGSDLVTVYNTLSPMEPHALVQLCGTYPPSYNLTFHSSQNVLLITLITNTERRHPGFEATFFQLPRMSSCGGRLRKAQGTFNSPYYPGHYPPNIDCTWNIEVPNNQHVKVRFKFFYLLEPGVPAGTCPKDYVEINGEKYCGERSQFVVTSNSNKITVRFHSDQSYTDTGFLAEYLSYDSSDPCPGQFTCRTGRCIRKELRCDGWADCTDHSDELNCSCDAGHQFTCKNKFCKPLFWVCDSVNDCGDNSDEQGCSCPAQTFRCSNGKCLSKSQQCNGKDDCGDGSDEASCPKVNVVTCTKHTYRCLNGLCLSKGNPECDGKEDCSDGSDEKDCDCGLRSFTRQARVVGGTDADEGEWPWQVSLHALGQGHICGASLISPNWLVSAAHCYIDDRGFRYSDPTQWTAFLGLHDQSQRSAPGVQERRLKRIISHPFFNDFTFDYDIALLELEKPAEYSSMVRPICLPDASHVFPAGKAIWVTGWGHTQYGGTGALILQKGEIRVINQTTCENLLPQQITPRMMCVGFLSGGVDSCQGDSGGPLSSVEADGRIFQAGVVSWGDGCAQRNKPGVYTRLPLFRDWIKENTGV
Protocol: as §1, §2

hepsin = conditions: cited from earlier work

T1 sequence (P05981 163-417 limits assumed): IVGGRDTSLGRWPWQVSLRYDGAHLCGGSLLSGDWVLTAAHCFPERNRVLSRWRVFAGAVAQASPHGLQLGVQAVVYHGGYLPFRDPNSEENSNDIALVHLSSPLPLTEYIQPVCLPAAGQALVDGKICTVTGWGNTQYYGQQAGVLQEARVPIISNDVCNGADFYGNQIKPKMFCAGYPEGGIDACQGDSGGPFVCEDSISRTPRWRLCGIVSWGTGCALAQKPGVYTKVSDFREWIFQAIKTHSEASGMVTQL
T1 sequence (P05981 1-162 partner limits assumed): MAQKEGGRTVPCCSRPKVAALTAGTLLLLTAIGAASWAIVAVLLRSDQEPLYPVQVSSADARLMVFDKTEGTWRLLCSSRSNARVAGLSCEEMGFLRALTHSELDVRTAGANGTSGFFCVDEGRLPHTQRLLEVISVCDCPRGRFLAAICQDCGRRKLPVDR

Compound | Ki (Recombinant hepsin) | Matriptase/ Hepsin (hepsin selectivity, ratio of Ki values) (Recombinant hepsin) | Ki (matriptase) | hepsin selectivity (ratio of Ki values for matriptase and hepsin), previous reported value (hepsin) | Ki (hepsin; read-out: Ki hepsin, previous reported value)
CC(C)C[C@H](NC(=O)CCc1cn(CCOCCOCCF)nn1)C(=O)NC(CCCNC(=N)N)C(=O)c1nccs1 (stereo partly drawn) [Ligand 1A, (2S)-2-(3-(1-(2-(2-(2-Fluoroethoxy)ethoxy)ethyl)-1H-1,2,3-triazol-4-yl)propanamido)-N-(5-guanidino-1-oxo-1-(thiazol-2-yl)pentan-2-yl)-4-methylpentanamide] | 0.9 ± 0.1 nM | 60.6 | 54.5 ± 4.9 nM | – | –
^natGa-DOTA-conjugated 1-amino-N-(1-((5-guanidino-1-oxo-1-(thiazol-2-yl)pentan-2-yl)amino)-4-methyl-1-oxopentan-2-yl)-3,6,9,12-tetraoxapentadecan-15-amide [Ligand 2B] | 5.7 ± 0.2 nM | 12.0 | 68.2 ± 2.4 nM | – | –
CC(C)C[C@H](NC(=O)CCc1cn(CCOCCOCCF)nn1)C(=O)NC(CCCNC(=N)N)C(=O)c1nccs1 (stereo partly drawn) [Ligand 1B, (2S)-2-(3-(1-(2-(2-(2-Fluoroethoxy)ethoxy)ethyl)-1H-1,2,3-triazol-4-yl)propanamido)-N-(5-guanidino-1-oxo-1-(thiazol-2-yl)pentan-2-yl)-4-methylpentanamide] | 0.5 ± 0.1 nM | 40.0 | 20 ± 0.6 nM | – | –
CC(=O)N[C@@H](CC(C)C)C(=O)NC(CCCNC(=N)N)C(=O)c1nccs1 (some centres unmarked) [Ac–Leu–Arg–kt, reference compound] | 7.8 ± 2.8 nM | 7.2 | 56.5 ± 2.7 nM | 14.9 | 22.4 ± 0.5 nM
^natGa-DOTA-conjugated 1-amino-N-(1-((5-guanidino-1-oxo-1-(thiazol-2-yl)pentan-2-yl)amino)-4-methyl-1-oxopentan-2-yl)-3,6,9,12-tetraoxapentadecan-15-amide [Ligand 2A] | 14.3 ± 1.2 nM | 11.6 | 166 ± 8.2 nM | – | –

Second part, led by results:

Ki (Recombinant hepsin) | Matriptase/ Hepsin (hepsin selectivity, ratio of Ki values) (Recombinant hepsin) | Ki (matriptase) | Compound | hepsin selectivity (ratio of Ki values for matriptase and hepsin), previous reported value (hepsin) | Ki (hepsin; read-out: Ki hepsin, previous reported value)
5.1 ± 0.3 nM | 23.5 | 120 ± 3.5 nM | ^natCu-DOTA-conjugated 1-amino-N-(1-((5-guanidino-1-oxo-1-(thiazol-2-yl)pentan-2-yl)amino)-4-methyl-1-oxopentan-2-yl)-3,6,9,12-tetraoxapentadecan-15-amide [Ligand 3B] | – | –
15 ± 0.6 nM | 16.6 | 249 ± 12.3 nM | ^natCu-DOTA-conjugated 1-amino-N-(1-((5-guanidino-1-oxo-1-(thiazol-2-yl)pentan-2-yl)amino)-4-methyl-1-oxopentan-2-yl)-3,6,9,12-tetraoxapentadecan-15-amide [Ligand 3A] | – | –
